{"source": "patent US4053632A", "about": "“Compounds of spiro-amine type and methods for their use” (priority 1971, dated 1977)", "key": {"[1]": {"system": "conditioned avoidance response (CAR)", "assay": "Conditioned avoidance response in rats", "assay_type": "in vivo, rat", "conditions": "for ED50: Rattus norvegicus, ip, 1 h, i.p.", "procedure": "For this reason the conditioned avoidance test has been developed for initial screening of neuroleptics. Rats were trained to avoid electrical shock by jumping from one compartment to the other in a shuttle box. The conditioned stimulus consists of an auditory signal which after eight seconds was followed by the electrical shock. The rates were trained to a criterion of making eight out of ten responses correctly. The drugs were injected one hour before the test. The avoidance responses are expressed in percentage of those before administration. CD50 is the dose which reduces the avoidance response to 50% of control values."}, "[2]": {"system": "DA turnover / dopamine receptor", "assay": "Estimation of DA receptor blockade (DA turnover) in the rat brain", "assay_type": "in vivo", "conditions": "for effect on DA turnover: in words; for minimal effective dose: ip, read-out: first significant dose, effect on brain dopamine level", "source_text": "(§1) The estimation of catecholamine (CA) turnover was made by using the tyrosine hydroxylase inhibitor α-methyl tyrosine methyl ester (H 44/68) (4). This technique is based on the assumption that dopamine (DA) or noradrenaline (NA) receptor blockade will mediate an increase in CA turnover and result in lowered CA levels in the brain compared to H 44/68 alone. Since DA receptor blockade is assumed to be a biochemical correlate to antipsychotic action, this test gives a biochemical evidence for an antipsychotic effect. In this particular test the DA and NA levels in the brain were measured biochemically (5,6)."}, "[3]": {"system": "uptake of 5-HT (midbrain slices)", "assay": "Inhibition of the uptake of tritiated 5-HT in vitro (brain slices)", "assay_type": "biochemical, mouse"}, "[4]": {"system": "catalepsy", "assay": "Catalepsy", "assay_type": "in vivo", "conditions": "rat", "source_text": "(§2) Using the method and intensity scaring system described by Costall and Naylar, (7), the cataleptic properties of SIR 109 and chloropromazine were studied. Briefly, an animal was classed as cataleptic if it remained in an abnormal position for 15 seconds. Additionally, the duration the animal held this position was converted to a numerical scare as an indication of the intensity of the catalepsy."}, "[5]": {"assay": "Catalepsy", "assay_type": "in vivo", "source_text": "as §2"}, "[6]": {"system": "methamphetamine induced hyperactivity", "assay": "Antagonism of methamphetamine-induced hyperactivity", "assay_type": "in vivo, mouse", "conditions": "mice, FIG. 1, in words", "procedure": "Sedatives (e.g. barbiturates, benzodiazepines and propandiols) on the other hand generally potentiate the induced hyperactivity. The interaction with amphetamines consequently gives an indication of the mechanism of a drug. Male mice were pretreated with the test drug 30 minutes before the administration of methamphetamine 3 mg/kg i.p. After 20 minutes the spontaneous motor activity was measured for 20 minutes by an Animex activity meter, which can distinguish between slight and considerable motion. The animals were tested in groups of three and used only once. Control groups treated with saline alone or the test drug and saline according to the testing schedule were run simultaneously."}, "[7]": {"system": "pupil width (mydriasis)", "conditions": "mouse, in vivo", "experimental": "(§3) The compounds were given by intravenous route to 3 mice. […] Seizures, gait, sedation and grip strength were recorded.\n(§4) Acute toxicity was tested by the intraveneous, intraperitoneal and oral routes of administration. […] During the oral route a behavioral scoring system was used in order to relate changes in behavior to dose. The LD50 values were determined graphically from log dose -- response curves based on four doses with three animals per dose. Peripheral parasympatholytic effect was tested in mice by observing the mydriatic effect after intravenous injection (9) (four doses with three animals per dose). PD200 refers to the dose which increases the pupil width by 200%."}, "[8]": {"system": "NA turnover / noradrenaline receptor", "assay": "Estimation of NA receptor blockade (NA turnover) in the rat brain", "assay_type": "in vivo", "conditions": "for minimal effective dose: ip, read-out: first significant dose, effect on brain noradrenaline level", "source_text": "as §1"}, "[9]": {"system": "mice", "assay": "Behavioral observation (ptosis, catatonia) in mice", "assay_type": "in vivo, mouse"}, "[10]": {"system": "aggressive behavior", "assay": "Aggressive behavior (anti-aggressive test) in isolated mice", "assay_type": "in vivo, mouse", "conditions": "for ED50: Mus musculus, ip, 1 h, read-out: Anti-aggresive test ED50; for effect on aggressive behavior: in words", "procedure": "Anxiolytic effect was defined as a block of aggressive behavior in mice. Male mice kept isolated for 3 weeks or longer develop an aggressive behaviour when caged together. The method used followed that reported by Valzelli et al. (8) with the exception that two mice were tested together. The aggressiveness was scored during a five minute test according to the following scale:\n0: the animals show no interest in each other except occasional nosing,\n[…]: frequent vigorous nosing and tail twitching. The animals assume a fighting position and occasionally attack the partner -- no more than 3-4 times in the period of five minutes,\n50: tail twitching, powerful attacks -- no more than 10 times during the test period,\n75: the animals pursue their partners, attacking and biting for most of the time,\n100: attacks over the entire period.\nControls administered with the solvent were tested. […] The animals were used for several experiments but with intervals of at least one week. Groups of 10 mice were used, and they were tested one hour after the administration of the drug. The animals were used as their own controls."}, "[11]": {"system": "uptake of 5-HT (midbrain slices)", "assay": "Inhibition of the uptake of tritiated 5-HT in vivo", "set-up": "species or system mouse", "conditions": "Mus musculus, ip, 0.5 h; i.p., in vivo; read-out: Inhibition (50 %) of uptake in vivo, 5-HT", "procedure": "The drugs were administered intraperitoneally half an hour before the animals were killed and the midbrain was taken out and sliced and incubated in a mixture consisting of, per 100 mg of brain slices, 0.2 μmole of ^3 H-5-HT and 1 μmole of glucose in 2 ml of Krebs-Henseleit buffer, pH 7.4. The incubation time was 5 minutes with 5 minutes of preincubation before ^3 H-5-HT was added. The radioactive ^3 H-5-HT taken up in the slices was extracted with ethanol and the amount was determined by liquid scintillation. The dose producing 50 per cent decrease of the active uptake (ED50) was determined graphically from dose response curves. Active uptake is defined as that part of the radioactive uptake which is inhibited by a high concentration of cocaine. All doses were given at least to four animals."}, "[12]": {"system": "motor activity", "assay": "Motor activity in mice", "assay_type": "in vivo, mouse", "conditions": "for ED50: Mus musculus, 1 h", "procedure": "The exploratory activity of mice was recorded in a locomotion cage in which the movements were counted each time the animals cross-circuits on electrical current in the bottom plate. […] The animals were tested individually. Groups of six mice were used and the mice were only used once. The activity was expressed in percent of the activity of control groups ran simultaneously.\nSedative activity was defined as suppression of normal motor activity. The motor activity in mice was automatically recorded in a locomotion cage in which the movements are counted each time the animal short-circuits an electrical current in the bottom plate. […] The animals were tested individually. Groups of six mice were used. The activity was expressed in percent of the activity of control groups run simultaneously."}, "[13]": {"assay": "in vivo", "conditions": "mouse", "experimental": "as §3, §4"}, "[14]": {"system": "uptake of noradrenaline (cortex slices)", "assay": "Inhibition of the uptake of tritiated noradrenaline in vivo", "conditions": "ip, read-out: Inhibition (50 %) of uptake in vivo, NA", "procedure": "The animals were killed half or one hour after the administration of the drugs in vivo (i.p.). The slices, made from cortex, were preincubated for five minutes and incubated with 0.1 μmole per ml of ^3 H-noradrenaline for further five minutes. The incubation mixture consisted of 0.2 μmole of ^3 H-NA and the brain slices in 2 ml of Krebs-Henseleits buffer, pH 7.4. The radioactive ^3 H-NA taken up in the slices was extracted with ethanol and the amount was determined by liquid scintillation. The dose producing 50 per cent decrease of the active uptake (ED50) was determined graphically from dose response curves. At least four animals were used at each dose level."}, "[15]": {"system": "mice", "assay": "Acute toxicity in mice", "conditions": "in words", "experimental": "as §3, §4"}, "[16]": {"system": "uptake of noradrenaline (cortex slices)", "assay": "Inhibition of the uptake of tritiated noradrenaline in vitro (brain slices)", "assay_type": "biochemical", "conditions": "dl-noradrenaline 10^-7 M"}, "[17]": {"system": "conditioned avoidance response (CAR)", "conditions": "general knowledge, in words; cited from earlier work"}, "[18]": {"assay": "Solubility in water", "assay_type": "physicochemical", "conditions": "hydrochloride"}, "[19]": {"conditions": "rat, after H 44/68 250 mg/kg i.p."}}, "note": "“Also recorded” adds a separate entry of the source. Read-outs that look alike come from different tables or passages of the source."}
{"smiles": "CN(C)C1C=CC2(CC1)c1ccccc1CCc1ccc(Cl)cc12", "note": "(racemic) [SIR 109, 3'-chloro-10', 11'-dihydro-4-(dimethylamino)spiro[2-cyclohexene-1,5'(5'H)-dibenzo[a,d]cycloheptene]]", "values": [{"measurement": "ED50", "setting": "[1]; rat, read-out: CAR CD50", "result": "7.5 to 10", "unit": "mg/kg"}, {"measurement": "ED50", "setting": "[1]; read-out: CAR ED50 (Table 4)", "result": "7.5 to 10", "unit": "mg/kg"}, {"measurement": "effect on conditioned avoidance response", "setting": "[1]; rat, in words", "result": "somewhat less active than chlorpromazine; also recorded: about as potent as chlorpromazine"}, {"measurement": "effect on DA turnover", "setting": "[2]", "result": "effects DA turnover at about the same dose; also recorded: about as potent as chlorpromazine"}, {"measurement": "minimal effective dose", "setting": "[2]; [19]", "result": 5, "unit": "mg/kg"}, {"measurement": "Inhibition (50 %) of uptake in vitro, 5-HT", "setting": "[3]", "result": 1.3, "unit": "µg/mL"}, {"measurement": "Catalepsy intensity score", "setting": "[4]", "result": 0.75}, {"measurement": "cataleptic effect", "setting": "[4]; in words", "result": "weak cataleptic effect in the rat; also recorded: intensity of catalepsy was considerably lower after SIR 109 compared to CPZ; also recorded: low cataleptic action"}, {"measurement": "ED50", "setting": "[5]; in vivo, ip, rat", "result": 25, "unit": "mg/kg"}, {"measurement": "block of methamphetamine induced hyperactivity", "setting": "[6]", "result": "blocked methamphetamine induced hyperactivity in mice; also recorded: about as potent as chlorpromazine"}, {"measurement": "peripheral (parasympatholytic) effects", "setting": "[7]", "result": "weak peripheral effects"}, {"measurement": "PD200 (Table 4)", "setting": "[7]; iv, 10 min", "result": "> 40", "unit": "mg/kg"}, {"measurement": "effect on NA turnover / selectivity versus DA turnover", "setting": "[8]; in words", "result": "seems to be more selective than chlorpromazine since it influences NA turnover first at higher doses; also recorded: more selective compound than chlorpromazine since it affects NA turnover first at higher doses"}, {"measurement": "minimal effective dose", "setting": "[8]; [19]", "result": "10 to 15", "unit": "mg/kg"}, {"measurement": "threshold dose for ptosis", "setting": "[9]; mouse, in vivo", "result": 31, "unit": "mg/kg"}, {"measurement": "catatonic state", "setting": "[9]; mouse, in vivo, po", "result": "did not cause any catatonic state"}, {"measurement": "ED50", "setting": "[10]; i.p., mice", "result": 0.27, "unit": "mg/kg"}, {"measurement": "effect on aggressive behavior", "setting": "[10]; mice", "result": "potent at a dose which does not cause sedation; also recorded: strong effect of SIR 109 on aggressive behavior at non-sedative doses"}, {"measurement": "ED50", "setting": "[11]", "result": "> 40", "unit": "mg/kg"}, {"measurement": "ED50", "setting": "[12]; mice, read-out: Motor activity ID50", "result": 5, "unit": "mg/kg"}, {"measurement": "ED50", "setting": "[12]; ip, i.p., mice, read-out: Motor activity ID50 (Table 4)", "result": 5, "unit": "mg/kg"}, {"measurement": "sedation / tranquilizing effect", "setting": "[12]; in words", "result": "tranquilizing effect of the compound; also recorded: strongly sedative or tranquilizing"}, {"measurement": "sedation (motor activity) versus CPZ", "setting": "[12]; mice, in words", "result": "caused sedation in the mice at about the same dose as CPZ; also recorded: about as potent as chlorpromazine"}, {"measurement": "LD50 at 24 h", "setting": "[13]; ip", "result": 185, "unit": "mg/kg"}, {"measurement": "LD50 at 24 h", "setting": "[13]; iv", "result": 40, "unit": "mg/kg"}, {"measurement": "LD50 at 24 h", "setting": "[13]; po", "result": 250, "unit": "mg/kg"}, {"measurement": "ED50", "setting": "[14]", "result": 40, "unit": "mg/kg"}, {"measurement": "acute toxicity versus CPZ", "setting": "[15]", "result": "considerably less toxic than CPZ both after i.v., i.p. and oral administration in the mice; also recorded: considerably less toxic after acute administration"}, {"measurement": "Inhibition (50 %) of uptake in vitro, NA", "setting": "[16]", "result": 1.5, "unit": "µg/mL"}]}
{"smiles": "CN(C)CCCN1c2ccccc2Sc2ccc(Cl)cc21", "note": "[Chlorpromazine, reference compound]", "values": [{"measurement": "ED50", "setting": "[1]; read-out: CAR ED50 (Table 4)", "result": 5, "unit": "mg/kg"}, {"measurement": "minimal effective dose", "setting": "[2]; Rattus norvegicus", "result": 5, "unit": "mg/kg"}, {"measurement": "effect on DA turnover", "setting": "[2]", "result": "effects DA turnover at about the same dose"}, {"measurement": "Catalepsy intensity score", "setting": "[4]; in vivo", "result": 1.0}, {"measurement": "ED50", "setting": "[5]; rat, in vivo, ip", "result": 7, "unit": "mg/kg"}, {"measurement": "block of methamphetamine induced hyperactivity", "setting": "[6]", "result": "blocked methamphetamine induced hyperactivity in mice"}, {"measurement": "inhibition of learned responses", "setting": "[17]", "result": "inhibit many different types of learned responses"}, {"measurement": "minimal effective dose", "setting": "[8]; Rattus norvegicus", "result": 5, "unit": "mg/kg"}, {"measurement": "threshold dose for ptosis", "setting": "[9]; mice", "result": 4, "unit": "mg/kg"}, {"measurement": "dose from which catatonic state was prominent", "setting": "[9]; orally, mouse", "result": "≥ 31", "unit": "mg/kg"}, {"measurement": "ED50", "setting": "[10]", "result": 2, "unit": "mg/kg"}, {"measurement": "effect on aggressive behavior", "setting": "[10]; mice", "result": "effective first at sedative doses"}, {"measurement": "LD50 at 24 h", "setting": "[13]; ip", "result": 92, "unit": "mg/kg"}, {"measurement": "LD50 at 24 h", "setting": "[13]; iv", "result": 26, "unit": "mg/kg"}, {"measurement": "LD50 at 24 h", "setting": "[13]; po", "result": 190, "unit": "mg/kg"}]}
{"smiles": "CNC1C=CC2(CC1)c1ccccc1C=Cc1ccccc12", "note": "(stereo not drawn) [Example 12]", "values": [{"measurement": "solubility", "setting": "[18]", "result": "~10000", "unit": "µg/mL"}]}
